The target of data set [1] is Acetylcholinesterase (Electrophorus electricus) (UniProt O42275). The data set can be described thus: Inhibition of Electric eel AChE at 10 uM using acetylthiocholine iodide as substrate preincubated for 5 mins followed by substrate addition measured after 5 mins by Ellman's method relative to control. In general terms: DTNB colorimetry detects thiols as they appear.

The target in data set [2] is Cholinesterase (Equus caballus) (UniProt P81908). The data set can be described thus: Inhibition of equine serum BuChE at 10 uM using butyrylthiocholine iodide as substrate preincubated for 5 mins followed by substrate addition measured after 5 mins by Ellman's method relative to control.
Chain of Cholinesterase (Equus caballus) (P81908 whole entry): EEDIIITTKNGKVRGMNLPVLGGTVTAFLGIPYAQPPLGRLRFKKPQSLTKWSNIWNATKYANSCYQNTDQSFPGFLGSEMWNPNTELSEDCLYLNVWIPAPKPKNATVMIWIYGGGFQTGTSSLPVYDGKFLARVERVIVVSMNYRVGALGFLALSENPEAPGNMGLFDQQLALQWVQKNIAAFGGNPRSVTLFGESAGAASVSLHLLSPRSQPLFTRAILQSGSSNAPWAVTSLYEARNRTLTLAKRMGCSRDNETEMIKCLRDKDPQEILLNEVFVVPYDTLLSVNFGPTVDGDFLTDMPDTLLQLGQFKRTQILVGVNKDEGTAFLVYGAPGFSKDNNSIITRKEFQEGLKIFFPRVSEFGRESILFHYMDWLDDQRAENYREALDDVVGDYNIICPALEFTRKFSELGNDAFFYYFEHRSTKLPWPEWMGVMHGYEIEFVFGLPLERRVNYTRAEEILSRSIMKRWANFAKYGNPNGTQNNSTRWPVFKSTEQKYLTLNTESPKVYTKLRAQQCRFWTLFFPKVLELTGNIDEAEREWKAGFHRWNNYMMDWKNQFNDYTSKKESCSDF
Data set [3] deals with Acetylcholinesterase (Electrophorus electricus, UniProt O42275).
Chain of Acetylcholinesterase (Electrophorus electricus, UniProt O42275) (O42275 whole entry): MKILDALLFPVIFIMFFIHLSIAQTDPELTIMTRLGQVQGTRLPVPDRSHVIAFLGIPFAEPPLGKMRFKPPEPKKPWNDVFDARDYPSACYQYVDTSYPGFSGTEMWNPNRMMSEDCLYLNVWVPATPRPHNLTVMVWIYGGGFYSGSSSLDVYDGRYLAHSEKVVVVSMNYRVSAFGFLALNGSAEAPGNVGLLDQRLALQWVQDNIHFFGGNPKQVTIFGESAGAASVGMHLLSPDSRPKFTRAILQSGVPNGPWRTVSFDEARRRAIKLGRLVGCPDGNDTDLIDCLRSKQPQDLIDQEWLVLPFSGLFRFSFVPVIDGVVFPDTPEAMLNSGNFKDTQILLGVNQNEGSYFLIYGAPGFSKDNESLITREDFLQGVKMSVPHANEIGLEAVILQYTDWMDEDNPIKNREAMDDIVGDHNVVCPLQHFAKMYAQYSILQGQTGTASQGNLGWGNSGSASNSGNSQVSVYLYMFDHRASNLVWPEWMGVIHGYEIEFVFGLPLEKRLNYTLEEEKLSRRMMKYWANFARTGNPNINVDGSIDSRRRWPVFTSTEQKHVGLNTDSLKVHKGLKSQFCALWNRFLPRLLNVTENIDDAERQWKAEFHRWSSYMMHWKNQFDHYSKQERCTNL
Description: Inhibition of Electric eel AChE using acetylthiocholine iodide as substrate preincubated for 5 mins followed by substrate addition measured after 5 mins by Ellman's method
In data set [4] the target is Acetylcholinesterase (Electrophorus electricus) (UniProt O42275). Description: Non-competitive inhibition of Electric eel AChE at 0.75 to 3.5 uM using varying levels of acetylthiocholine iodide as substrate preincubated for 5 mins followed by substrate addition measured after 5 mins by Lineweaver-Burk plot analysis.
For data set [5] the target is unchanged. Description: Non-competitive inhibition of Electric eel AChE at 0.75 to 3.5 uM using varying levels of acetylthiocholine iodide as substrate preincubated for 5 mins followed by substrate addition measured after 5 mins by Cornish-Bowden plot analysis.
The nature of the next data set: in vitro. The note with it: PAMPA. On the technique in general: In PAMPA a lipid-coated filter parts donor from acceptor wells.
The target of data set [6] is T1, Acetylcholinesterase (Homo sapiens, UniProt P22303). Description: Inhibition of recombinant human AChE using acetylthiocholine iodide as substrate preincubated for 5 mins followed by substrate addition measured after 5 mins by Ellman's method.
T1 sequence (P22303 whole entry): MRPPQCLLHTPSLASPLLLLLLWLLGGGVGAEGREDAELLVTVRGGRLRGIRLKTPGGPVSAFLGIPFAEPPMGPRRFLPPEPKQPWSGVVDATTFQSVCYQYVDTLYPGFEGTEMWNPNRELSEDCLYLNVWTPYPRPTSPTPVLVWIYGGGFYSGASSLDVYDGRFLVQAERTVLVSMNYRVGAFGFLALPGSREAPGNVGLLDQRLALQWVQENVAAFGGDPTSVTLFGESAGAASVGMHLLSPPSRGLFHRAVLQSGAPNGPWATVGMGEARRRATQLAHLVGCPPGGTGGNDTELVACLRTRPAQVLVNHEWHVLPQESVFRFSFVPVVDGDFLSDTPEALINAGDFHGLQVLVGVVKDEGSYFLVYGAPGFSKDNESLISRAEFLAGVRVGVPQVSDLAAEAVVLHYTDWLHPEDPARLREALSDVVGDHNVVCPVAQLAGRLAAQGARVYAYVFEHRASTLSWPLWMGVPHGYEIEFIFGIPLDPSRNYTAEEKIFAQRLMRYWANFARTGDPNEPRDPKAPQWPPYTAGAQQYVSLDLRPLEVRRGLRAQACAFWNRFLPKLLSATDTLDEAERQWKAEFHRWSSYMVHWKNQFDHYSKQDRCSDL
Data set [7] concerns the target Amyloid-beta precursor protein (Homo sapiens) (UniProt P05067). Description: Inhibition of recombinant human HFIP-pretreated amyloid beta (1 to 42) self-induced aggregation at 10 uM after 24 hrs by thioflavin T-based fluorometric assay relative to control.
The target in data set [8] is T1, Acetylcholinesterase. The data set can be described thus: Inhibition of recombinant human AChE using acetylthiocholine as substrate by Ellman's method.
The conditions of data set [9]: PAMPA, 6 h, 100 µM.

Structures are written as SMILES. Calls of active or inactive are those of the source. No cut-off for these calls is given here.

Chain of Acetylcholinesterase (Electrophorus electricus) (O42275 24-633 limits assumed): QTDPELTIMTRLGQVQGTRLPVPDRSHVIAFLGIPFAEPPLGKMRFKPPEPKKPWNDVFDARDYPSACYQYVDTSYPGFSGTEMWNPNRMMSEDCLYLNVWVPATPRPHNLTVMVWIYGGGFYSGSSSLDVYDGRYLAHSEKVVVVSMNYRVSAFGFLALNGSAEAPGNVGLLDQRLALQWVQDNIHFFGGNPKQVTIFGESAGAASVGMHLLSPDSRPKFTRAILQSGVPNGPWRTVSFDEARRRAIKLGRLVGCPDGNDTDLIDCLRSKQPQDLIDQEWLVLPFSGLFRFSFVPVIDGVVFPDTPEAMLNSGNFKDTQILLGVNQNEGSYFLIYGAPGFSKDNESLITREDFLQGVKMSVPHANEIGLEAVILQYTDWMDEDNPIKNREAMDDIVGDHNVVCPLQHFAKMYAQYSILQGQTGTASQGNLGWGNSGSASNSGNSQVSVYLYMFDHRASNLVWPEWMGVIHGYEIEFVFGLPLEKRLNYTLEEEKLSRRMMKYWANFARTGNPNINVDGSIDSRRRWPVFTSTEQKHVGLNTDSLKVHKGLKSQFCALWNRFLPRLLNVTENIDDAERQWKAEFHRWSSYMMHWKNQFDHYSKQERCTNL
Chain of Amyloid-beta precursor protein (Homo sapiens) (P05067 whole entry): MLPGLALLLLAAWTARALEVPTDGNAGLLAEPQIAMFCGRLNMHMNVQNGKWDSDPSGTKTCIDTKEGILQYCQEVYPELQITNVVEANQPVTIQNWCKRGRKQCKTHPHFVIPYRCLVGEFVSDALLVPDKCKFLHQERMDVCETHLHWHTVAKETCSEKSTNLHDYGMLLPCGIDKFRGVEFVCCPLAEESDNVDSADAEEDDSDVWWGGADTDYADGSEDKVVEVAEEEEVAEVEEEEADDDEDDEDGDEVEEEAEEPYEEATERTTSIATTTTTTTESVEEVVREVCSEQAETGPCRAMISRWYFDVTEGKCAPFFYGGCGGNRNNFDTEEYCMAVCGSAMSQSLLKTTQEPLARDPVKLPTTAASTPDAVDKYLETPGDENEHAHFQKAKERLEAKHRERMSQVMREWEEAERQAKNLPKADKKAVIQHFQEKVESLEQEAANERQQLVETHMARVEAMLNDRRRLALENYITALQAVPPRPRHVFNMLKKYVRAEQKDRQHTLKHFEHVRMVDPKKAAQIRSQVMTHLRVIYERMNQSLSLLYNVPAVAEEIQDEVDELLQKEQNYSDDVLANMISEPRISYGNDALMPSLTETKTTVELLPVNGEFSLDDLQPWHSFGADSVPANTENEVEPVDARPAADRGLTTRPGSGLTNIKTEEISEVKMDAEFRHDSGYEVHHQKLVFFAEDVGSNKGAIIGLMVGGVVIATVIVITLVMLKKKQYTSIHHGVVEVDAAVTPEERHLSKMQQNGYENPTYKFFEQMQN

On to `O=C1c2ccccc2S(=O)(=O)N1CCCCCN1CCN(Cc2ccccc2)CC1`, for which the inhibition (usually the share of the control response that was lost under treatment) was found to be 43.1% in data set [1] and 30.4% in [2].
The matching figures for `O=C1c2ccccc2C(=O)N1CCNC1CCN(Cc2ccccc2)C1` (stereo unspecified): 25.7% and 21.4%.
For `O=C1c2ccccc2S(=O)(=O)N1CCN1CCCN(Cc2ccccc2F)C1`, in that order: 18.4% and 21.6%.
Regarding `O=C1c2ccccc2S(=O)(=O)N1CCN1CCN(Cc2cccc(F)c2)CC1`, the inhibition was above 50% in data set [1] and below 10% in data set [2]. In addition, the IC50 (in general, the concentration that inhibits the measured activity by half) at Acetylcholinesterase [3] was found to be 2.14 µM.
Consider `O=C1c2ccccc2C(=O)N1CCNC1CCCN(Cc2ccccc2)C1` (stereo unspecified), for which the values for the inhibition in data set [1] and in data set [2] were below 10% and 16%, respectively.
The matching figures for `O=C1c2ccccc2C(=O)N1CCN1CCN(Cc2ccccc2F)CC1`: 41.8% and below 10%.
Regarding `O=C1c2ccccc2S(=O)(=O)N1CCN1CCN(Cc2ccccc2)CC1`, the inhibition in data set [1] is above 50%; in [2], 22.1%. The inhibition entry in [4] and in data set [5] was “Active” each time. The compound further yielded an IC50 on Acetylcholinesterase [3] of 0.83 µM. The apparent permeability (Papp) (as a rule, a coefficient for how fast a substance crosses the barrier) at 6 h, 100 µM in the data set “in vitro” is 3.75 ×10⁻⁶ cm/s.
With `O=C1c2ccccc2C(=O)N1CCN1CCCN(Cc2ccccc2F)C1`, the inhibition in [1] was below 10%; in [2], 27.8%.
As for `O=C1c2ccccc2S(=O)(=O)N1CCCCCNCc1ccccc1`, the IC50 on Acetylcholinesterase [6] is 0.033 µM. For the same compound, the inhibition in [7] turned out to be 22.2%.
Turning to `O=C1c2ccccc2S(=O)(=O)N1CCN1CCN(Cc2ccccc2F)CC1`, the figures for the inhibition in data set [1] and in [2] were above 50% and 16.1%, respectively. Moreover, the IC50 against Acetylcholinesterase [3] came to 17.8 µM.
Take `O=C1c2ccccc2C(=O)N1CCNC1CCCN(Cc2ccccc2F)C1` (stereo unspecified): the inhibition in data set [1] stood at 18.9%; in data set [2] it was 28.3%.
`O=C1c2ccccc2S(=O)(=O)N1CCCCCN1CCN(Cc2ccccc2F)CC1`: the inhibition in [1] was above 50%; in [2], 21.9%. This compound also returned a half-maximal inhibitory concentration (IC50) against Acetylcholinesterase [3] of 7.36 µM. Moreover, the Papp at 6 h, 100 µM in the data set “in vitro” was found to be 9.6 ×10⁻⁶ cm/s.
Regarding `O=C1c2ccccc2S(=O)(=O)N1CCN1CCN(CCc2ccccc2F)CC1`, the inhibition in data set [1] is below 10%; in data set [2], 11.3%.
The matching figures for `O=C1c2ccccc2C(=O)N1CCN1CCCC(NCc2ccccc2F)C1` (stereo unspecified): 15.3% and below 10%.
As for `O=C1c2ccccc2S(=O)(=O)N1CCCCN1CCN(Cc2ccccc2F)CC1`, the inhibition was above 50% in data set [1] and 29.6% in data set [2]. At Acetylcholinesterase [3], this compound yielded a half-maximal inhibitory concentration (IC50) of 4.25 µM. In “in vitro”, this compound came in with a Papp at 6 h, 100 µM of 11 ×10⁻⁶ cm/s.
On to `O=C1c2ccccc2S(=O)(=O)N1CCN1CCN(CCc2ccccc2)CC1`, for which the inhibition in [1] is below 10%; in data set [2] it was 18.4%.
The matching figures for `O=C1c2ccccc2C(=O)N1CCN1CCCN(Cc2cc(F)cc(F)c2)C1`: below 10% and below 10%.
Take `O=C1c2ccccc2C(=O)N1CCN1CCN(CCc2ccccc2F)CC1`: the inhibition was below 10% in data set [1] and 20.3% in [2].
`O=C1c2ccccc2S(=O)(=O)N1CCN1CCN(Cc2ccc(F)cc2)CC1`: the figures for the inhibition in data set [1] and in data set [2] were above 50% and 47.5%, respectively. Besides, inhibition against Acetylcholinesterase [3] was half-maximal at 6.28 µM (IC50). In addition, the apparent permeability (Papp) at 6 h, 100 µM in “in vitro” was determined as 3.65 ×10⁻⁶ cm/s.
In the case of `O=C1c2ccccc2C(=O)N1CCN1CCN(Cc2cc(F)cc(F)c2)CC1`, the figures for the inhibition in [1] and in data set [2] were below 10% and 14.2%, respectively.
In the case of `O=C1c2ccccc2S(=O)(=O)N1CCCCCCN1CCN(Cc2ccccc2F)CC1`, the inhibition in data set [1] was above 50%; in data set [2] it was 31.6%. This compound also displayed an IC50 on Acetylcholinesterase [3] of 8.43 µM.
For `O=C1c2ccccc2C(=O)N1CCN1CCCC(NCc2cc(F)cc(F)c2)C1` (stereo unspecified), the inhibition in data set [1] is above 50%; in [2] it was 20%. In addition, the 50% inhibitory concentration (IC50) against Acetylcholinesterase [3] turned out to be 6.47 µM.
`O=C1c2ccccc2S(=O)(=O)N1CCN1CCCC(NCc2ccccc2F)C1` (stereo unspecified): the inhibition in [1] and in [2] was below 10% in each case.
On to `O=C1c2ccccc2C(=O)N1CCNC1CCCN(Cc2cc(F)cc(F)c2)C1` (stereo unspecified), for which the inhibition is below 10% in data set [1] and 14.2% in data set [2].
The matching figures for `O=C1c2ccccc2S(=O)(=O)N1CCCCCCN1CCN(Cc2ccccc2)CC1`: 41.7% and 41.8%.
In the case of `O=C1c2ccccc2S(=O)(=O)N1CCN1CCCN(Cc2cc(F)cc(F)c2)C1`, the inhibition in data set [1] came out at 25.4%; in [2] it was 16.4%.
Take `CCN(Cc1ccccc1)Cc1ccc(-c2cc3cc(OCCNC(=O)/C=C/c4cc(F)cc(F)c4)ccc3oc2=O)cc1`: the IC50 on Acetylcholinesterase [8] is 0.00716 µM.
In turn, `CCN(C)C(=O)Oc1cccc([C@H](C)N(C)C)c1` [RIVASTIGMINE] yielded a permeability in data set [9] of 6.6 ×10⁻⁶ cm/s.
`O=C1c2ccccc2S(=O)(=O)N1CCN1CCCC(NCc2cc(F)cc(F)c2)C1` (stereo unspecified): the inhibition in [1] and in data set [2] was below 10% throughout.
For the compound `O=C1c2ccccc2S(=O)(=O)N1CCCN1CCN(Cc2ccccc2F)CC1`, the inhibition in data set [1] was below 10%; in [2], 12%.
As to `O=C1c2ccccc2S(=O)(=O)N1CCN1CCN(Cc2cc(F)cc(F)c2)CC1`, the inhibition in data set [1] was above 50%; in data set [2] it was 11%. Further, at Acetylcholinesterase [3], the concentration for half-maximal inhibition (IC50) amounted to 19.2 µM.
As to `O=C1c2ccccc2S(=O)(=O)N1CCCCN1CCN(Cc2ccccc2)CC1`, the inhibition is above 50% in data set [1] and 41.5% in [2]. For the same compound, at Acetylcholinesterase [3], the half-inhibitory concentration (IC50) worked out at 3.01 µM. This compound also came in with a Papp at 6 h, 100 µM in the data set “in vitro” of 10.6 ×10⁻⁶ cm/s.
Consider `O=C1c2ccccc2S(=O)(=O)N1CCCN1CCN(Cc2ccccc2)CC1`, for which the inhibition in [1] was 34.2%; in data set [2], 11.7%.

Source of the values: ChEMBL document CHEMBL3877277, “Design, synthesis and biological evaluation of new phthalimide and saccharin derivatives with alicyclic amines targeting cholinesterases, beta-secretase and amyloid beta aggregation” (Eur J Med Chem, 2017).
